Test systems include HL-60(TB) leukemia; EKVX NSCLC; UACC-257 melanoma; CCRF-CEM leukemia; CAKI-1 renal; ACHN renal; MOLT-4 leukemia; RPMI-8226 leukemia; U251 CNS; TK-10 renal.
Holding throughout (test): NCI-60 cell line screen, 48 h

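96-well plates; 48 h exposure; 5 concentrations. Endpoints by linear interpolation between flanking doses. Not reached: highest tested concentration assigned. At the GI50, growth is halved. TGI: concentration producing complete growth inhibition.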

As for `Oc1ccc(N=Nc2nccs2)c(O)c1`, the GI50 in the test with HL-60(TB) leukemia is 3.41 µM; in the test with EKVX NSCLC, 2100 nM; in the test on UACC-257 melanoma, 16.4 µM; with CCRF-CEM leukemia it was 2480 nM; in the test on CAKI-1 renal, 417 nM; in the test on ACHN renal it was 2960 nM. For the same compound, the GI50 was 3.1 µM in the test on MOLT-4 leukemia, 1.62 µM with RPMI-8226 leukemia, 4.5 µM in the test with U251 CNS and 14 µM in the test on TK-10 renal. Also, the TGI with HL-60(TB) leukemia is greater than 100 µM; with EKVX NSCLC, 15.3 µM; with UACC-257 melanoma, 60.1 µM; in the test on CCRF-CEM leukemia, 8.99 µM; with CAKI-1 renal it was 2.37 µM; in the test with ACHN renal, 33.8 µM. Besides, the TGI was 20.3 µM in the test with MOLT-4 leukemia, 4.91 µM in the test with RPMI-8226 leukemia, 35.2 µM with U251 CNS and 59.3 µM with TK-10 renal.
For the compound `NC(N)=N/N=C(\N=Nc1ccccc1)c1ccc(Cl)cc1`, the GI50 with HL-60(TB) leukemia is 1.88 µM; with EKVX NSCLC it was 2550 nM; in the test on UACC-257 melanoma, 2.42 µM; in the test on CCRF-CEM leukemia it was 1760 nM; in the test with CAKI-1 renal it was 1420 nM; with ACHN renal it was 2510 nM. The GI50 in the test on MOLT-4 leukemia was 2.35 µM; in the test on RPMI-8226 leukemia, 3.21 µM; with U251 CNS, 2.39 µM; with TK-10 renal, 3.18 µM. In addition, the TGI came to 3.85 µM in the test with HL-60(TB) leukemia; 13.5 µM with EKVX NSCLC; 6.37 µM in the test with UACC-257 melanoma; 5.78 µM in the test on CCRF-CEM leukemia; 3.29 µM with CAKI-1 renal; 8.06 µM in the test with ACHN renal. For the same compound, the TGI with MOLT-4 leukemia was 6.16 µM; in the test on RPMI-8226 leukemia, 12 µM; in the test on U251 CNS, 7.55 µM; with TK-10 renal, 12 µM.
Turning to `COc1ccc(-c2nn(-c3cccc(Cl)c3)cc2-c2nc(N)[nH]c(=O)c2C#N)cc1`, the GI50 is 3.96 µM in the test with HL-60(TB) leukemia; 3290 nM in the test on EKVX NSCLC; 5.69 µM with UACC-257 melanoma; 3650 nM in the test on CCRF-CEM leukemia; 2520 nM in the test with CAKI-1 renal; 9920 nM with ACHN renal. Moreover, the GI50 in the test with MOLT-4 leukemia was 4.8 µM; with RPMI-8226 leukemia it was 5.63 µM; in the test on U251 CNS, 3.66 µM; in the test with TK-10 renal, 13.5 µM. The TGI was 14.2 µM in the test with HL-60(TB) leukemia; 35.4 µM in the test with EKVX NSCLC; 47.3 µM in the test with UACC-257 melanoma; 33.8 µM with CCRF-CEM leukemia; 15.3 µM in the test on CAKI-1 renal; greater than 100 µM with ACHN renal. Further, the TGI with MOLT-4 leukemia worked out at 39.8 µM; in the test on RPMI-8226 leukemia, 55.5 µM; in the test with U251 CNS, 18.8 µM; with TK-10 renal, 53.9 µM.
As for `C=C(C)[C@@H]1CC[C@]2(C)[C@H](CC[C@@H]3[C@@H]([C@@](C)(O)CCC=C(C)C)CC[C@]32C)[C@@]1(C)CCC(=O)O`, the GI50 is 20.6 µM in the test on HL-60(TB) leukemia; 24200 nM in the test with EKVX NSCLC; 23.8 µM with UACC-257 melanoma; 18000 nM in the test with CCRF-CEM leukemia; 13900 nM in the test on CAKI-1 renal; 21700 nM with ACHN renal. Besides, the GI50 in the test with MOLT-4 leukemia was 15.4 µM; in the test on RPMI-8226 leukemia, 12.2 µM; in the test with U251 CNS, 16.6 µM; in the test with TK-10 renal, 40.6 µM. The TGI with HL-60(TB) leukemia came out at 54.5 µM; in the test with EKVX NSCLC, 59.6 µM; with UACC-257 melanoma it was 96.4 µM; with CCRF-CEM leukemia, 48.2 µM; with CAKI-1 renal, 27.7 µM; in the test on ACHN renal, 54.3 µM. The TGI was 52.7 µM with MOLT-4 leukemia, 38.2 µM in the test on RPMI-8226 leukemia, 31.8 µM in the test on U251 CNS and greater than 100 µM with TK-10 renal.
Turning to `CC12CCC(=O)N1c1cccnc1N2` (stereo not given), the TGI in the test with HL-60(TB) leukemia, in the test on EKVX NSCLC, in the test on UACC-257 melanoma, with CCRF-CEM leukemia, in the test on CAKI-1 renal and in the test with ACHN renal was greater than 100 µM each time. Moreover, the TGI with MOLT-4 leukemia, with RPMI-8226 leukemia, with U251 CNS and in the test on TK-10 renal was greater than 100 µM each time.
Regarding `O=C1C=CC(=CC=C2C=CN(CCCCCCCCCCC(=O)NCCCCCCCCCCCC(=O)O)C=C2)C=C1`, the TGI in the test on HL-60(TB) leukemia, with EKVX NSCLC, in the test with UACC-257 melanoma, in the test with CCRF-CEM leukemia, in the test with CAKI-1 renal and with ACHN renal was greater than 100 µM each time. In addition, the TGI with MOLT-4 leukemia, in the test with RPMI-8226 leukemia, in the test on U251 CNS and with TK-10 renal was greater than 100 µM in each case.
In the case of `CCOC(=O)C1=C(N)Oc2c(sc3c(C)cccc23)C1c1ccc(F)cc1` (stereo not given), the GI50 in the test on HL-60(TB) leukemia is 0.374 µM; with EKVX NSCLC, 880 nM; with UACC-257 melanoma, 12.6 µM; with CCRF-CEM leukemia, 559 nM; in the test with CAKI-1 renal, 413 nM; in the test on ACHN renal, 692 nM. In addition, the GI50 in the test on MOLT-4 leukemia is 1.88 µM; in the test on RPMI-8226 leukemia it was 0.489 µM; with U251 CNS, 0.58 µM; in the test with TK-10 renal it was 13.2 µM. Further, the TGI in the test on HL-60(TB) leukemia stood at 4.62 µM; in the test with EKVX NSCLC, 19.7 µM; in the test on UACC-257 melanoma, 27.7 µM; in the test with CCRF-CEM leukemia it was 21.6 µM; in the test on CAKI-1 renal, 14.9 µM; in the test on ACHN renal, 15.9 µM. For the same compound, the TGI amounted to 17.5 µM with MOLT-4 leukemia, 5.38 µM with RPMI-8226 leukemia, 17 µM in the test on U251 CNS and 29.5 µM in the test on TK-10 renal.
`COc1cc(/C=C/C(=O)Oc2ccccc2)ccc1C(=O)O/C=C/c1ccccc1`: the TGI in the test on HL-60(TB) leukemia, with EKVX NSCLC, in the test with UACC-257 melanoma, in the test with CCRF-CEM leukemia, in the test on CAKI-1 renal and in the test on ACHN renal was greater than 100 µM in each case. The TGI in the test on MOLT-4 leukemia, with RPMI-8226 leukemia, in the test on U251 CNS and in the test with TK-10 renal was greater than 100 µM in each case.
As to `Cc1ccc(N2C(=O)N(c3ccc(C)cc3)C3(SC=NN3C)C2=O)cc1` (stereo not given), the TGI in the test on HL-60(TB) leukemia, in the test on EKVX NSCLC, in the test with UACC-257 melanoma, with CCRF-CEM leukemia, in the test with CAKI-1 renal and in the test on ACHN renal was greater than 100 µM each time. For the same compound, the TGI in the test on MOLT-4 leukemia, with RPMI-8226 leukemia, in the test on U251 CNS and in the test on TK-10 renal was greater than 100 µM throughout.

These data come from PubChem BioAssay (NCI).
